Data reported in US10112935B2, “Indazolyl thiadiazolamines and related compounds for inhibition of Rho-associated protein kinase and the treatment of disease” (Lycera Corporation, priority 2015, dated 2018).

Experiments:
[1] = target: GST-tagged human ROCK1 catalytic domain 1-477 (Homo sapiens (Human), UniProt Q13464); experiment: Inhibition of Rho-associated protein kinase isoform 1 (LANCE Ultra ULight-CREBtide FRET kinase assay); assay type: biochemical; conditions: 30 μM was the highest concentration analyzed
Protocol: (§1) Exemplary compounds were tested for ability to inhibit Rho-associated protein kinase isoform 1 (ROCK1) and Rho-associated protein kinase isoform 2 (ROCK2). Assay procedures and results are described below.
(§2) Protein constructs were purified from a baculovirus expression system. The peptide substrate was fluorescent LANCE® Ultra ULight-CREBtide: […] (PerkinElmer, # TRF0107-D). […] After a 90 minute incubation at room temperature on a shaker table, the kinase reaction was stopped by addition of 10 mM EDTA, and phosphorylation of the substrate was detected by adding 1 nM LANCE® Ultra Europium-anti-phospho-CREB (ser133) antibody (PerkinElmer, # TRF0200-D) and incubating for 60 minutes on a shaker at room temperature. The flurorescence resonance energy transfer (FRET) signals were read and analyzed on an Envision™ 2103 Multilabel Reader (Perkin Elmer).

[2] = target: GST-tagged human ROCK2 catalytic domain 1-553 (Homo sapiens (Human), UniProt O75116); experiment: Inhibition of Rho-associated protein kinase isoform 2 (LANCE Ultra ULight-CREBtide FRET kinase assay); assay type: biochemical; conditions: for IC50: 30 μM was the highest concentration analyzed; for Selectivity for ROCK2 over ROCK1 (IC50 ROCK1 / IC50 ROCK2): selectivity ROCK2 vs ROCK1
Protocol: as §1, §2

GST-tagged human ROCK1 catalytic domain 1-477, sequence (Q13464 1-477): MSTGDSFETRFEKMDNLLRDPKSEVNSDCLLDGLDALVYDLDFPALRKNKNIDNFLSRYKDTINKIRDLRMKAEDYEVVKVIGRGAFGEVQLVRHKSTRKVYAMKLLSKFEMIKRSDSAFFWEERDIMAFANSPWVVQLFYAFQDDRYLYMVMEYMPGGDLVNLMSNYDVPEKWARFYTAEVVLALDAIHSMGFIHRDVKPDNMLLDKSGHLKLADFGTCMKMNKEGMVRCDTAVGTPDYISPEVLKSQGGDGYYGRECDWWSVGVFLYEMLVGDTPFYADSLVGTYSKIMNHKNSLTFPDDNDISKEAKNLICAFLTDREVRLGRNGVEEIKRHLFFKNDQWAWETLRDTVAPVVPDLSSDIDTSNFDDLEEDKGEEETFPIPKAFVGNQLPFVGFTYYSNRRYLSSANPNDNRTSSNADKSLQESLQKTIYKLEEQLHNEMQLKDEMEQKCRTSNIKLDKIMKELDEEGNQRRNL
GST-tagged human ROCK2 catalytic domain 1-553, sequence (O75116 1-553): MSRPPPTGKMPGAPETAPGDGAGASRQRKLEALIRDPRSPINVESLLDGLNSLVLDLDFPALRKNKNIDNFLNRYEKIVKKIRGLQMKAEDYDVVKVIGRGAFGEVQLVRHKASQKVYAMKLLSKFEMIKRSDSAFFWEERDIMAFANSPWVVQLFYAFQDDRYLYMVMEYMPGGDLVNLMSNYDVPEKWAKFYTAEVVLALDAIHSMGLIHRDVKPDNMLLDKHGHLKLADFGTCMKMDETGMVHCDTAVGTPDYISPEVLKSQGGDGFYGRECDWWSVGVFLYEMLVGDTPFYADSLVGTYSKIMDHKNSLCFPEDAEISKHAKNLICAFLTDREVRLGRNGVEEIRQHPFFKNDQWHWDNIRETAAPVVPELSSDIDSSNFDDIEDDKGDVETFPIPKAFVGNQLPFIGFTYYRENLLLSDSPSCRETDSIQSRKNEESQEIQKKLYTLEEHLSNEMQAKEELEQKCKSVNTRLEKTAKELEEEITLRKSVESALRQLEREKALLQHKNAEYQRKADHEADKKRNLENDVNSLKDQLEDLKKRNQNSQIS

Row | SMILES | IC50 [1] | IC50 [2] | Selectivity for ROCK2 over ROCK1 (IC50 ROCK1 / IC50 ROCK2) [2]
1 | N#Cc1ccc(CC(=O)Nc2cccc(-c3nnc(Nc4ccc5[nH]ncc5c4Cl)s3)c2)cc1 [Example 35BK] | > 30 µM | < 1 µM | >100
2 | Cn1ccnc1CC(=O)Nc1cccc(-c2nnc(Nc3ccc4[nH]ncc4c3Cl)s2)c1 [Example 35BL] | > 30 µM | < 1 µM | >100
3 | O=C(Cc1ccccn1)Nc1cccc(-c2nnc(Nc3ccc4[nH]ncc4c3Cl)s2)c1 [Example 35BM] | > 30 µM | < 1 µM | >100
4 | Cc1cc(CC(=O)Nc2cccc(-c3nnc(Nc4ccc5[nH]ncc5c4Cl)s3)c2)on1 [Example 35BN] | < 1 µM | < 1 µM | >5
5 | O=C(Cc1ccc(F)cc1)Nc1cccc(-c2nnc(Nc3ccc4[nH]ncc4c3Cl)s2)c1 [Example 35BO] | < 1 µM | < 1 µM | >50
6 | O=C(Cc1cnccn1)Nc1cccc(-c2nnc(Nc3ccc4[nH]ncc4c3Cl)s2)c1 [Example 35BP] | < 1 µM | < 1 µM | >5
7 | COc1ccc(CC(=O)Nc2cccc(-c3nnc(Nc4ccc5[nH]ncc5c4Cl)s3)c2)cc1 [Example 35BQ] | < 1 µM | < 1 µM | >5
8 | O=C(Nc1cccc(-c2nnc(Nc3ccc4[nH]ncc4c3Cl)s2)c1)c1cnccn1 [Example 35BR] | > 30 µM | < 1 µM | >100
9 | COc1ccc(C(=O)Nc2cccc(-c3nnc(Nc4ccc5[nH]ncc5c4Cl)s3)c2)cc1 [Example 35BS] | < 1 µM | < 1 µM | <5
10 | COc1cccc(C(=O)Nc2cccc(-c3nnc(Nc4ccc5[nH]ncc5c4Cl)s3)c2)c1 [Example 35BT] | < 1 µM | < 1 µM | >5
11 | Cn1cc(C(=O)Nc2cncc(-c3nnc(Nc4ccc5[nH]ncc5c4Cl)s3)c2)cn1 [Example 35BU] | < 1 µM | < 1 µM | >5
12 | NCCn1cc(C(=O)Nc2cc(-c3nnc(Nc4ccc5[nH]ncc5c4)s3)ccn2)cn1.O=C(O)C(F)(F)F [Example 35BV] | < 1 µM | < 1 µM | >50
13 | Cn1cc(C(=O)Nc2cccc(-c3nnc(Nc4ccc5[nH]nc(F)c5c4)s3)c2)cn1 [Example 35BW] | > 30 µM | > 30 µM | –
14 | Cn1cc(C(=O)Nc2cc(-c3nnc(Nc4ccc5[nH]ncc5c4)s3)ccn2)cn1.O=C(O)C(F)(F)F [Example 35BY] | > 30 µM | – | >100
15 | Cn1cc(C(=O)Nc2cc(F)c(F)c(-c3nnc(Nc4ccc5[nH]ncc5c4)s3)c2)cn1 [Example 35BZ] | > 30 µM | < 1 µM | >100
16 | O=C(Nc1cc(-c2nnc(Nc3ccc4[nH]ncc4c3Cl)s2)ccn1)c1ccc(F)cc1.O=C(O)C(F)(F)F [Example 35B] | < 1 µM | < 1 µM | <5
17 | Cn1cc(C(=O)Nc2cncc(-c3nnc(Nc4ccc5[nH]ncc5c4)s3)c2)cn1.O=C(O)C(F)(F)F [Example 35CA] | < 1 µM | < 1 µM | <5
18 | CC(=O)Nc1cc(F)c(F)c(-c2nnc(Nc3ccc4[nH]ncc4c3)s2)c1 [Example 35CB] | > 30 µM | < 1 µM | >100
19 | O=C(O)C(F)(F)F.O=C(O)CS(=O)(=O)Nc1cccc(-c2nnc(Nc3ccc4[nH]ncc4c3)s2)c1 [Example 35CD] | 1 to 15 µM | 1 to 15 µM | <5
20 | NCCn1cc(C(=O)Nc2cccc(-c3nnc(Nc4ccc5[nH]ncc5c4)s3)c2)cn1 [Example 35CE] | < 1 µM | < 1 µM | >5
21 | NCc1cncc(C(=O)Nc2cccc(-c3nnc(Nc4ccc5[nH]ncc5c4)s3)c2)c1.O=C(O)C(F)(F)F [Example 35CF] | 1 to 15 µM | < 1 µM | >5
22 | O=C(Nc1cccc(-c2nnc(Nc3ccc4[nH]ncc4c3)s2)c1)c1cnn(CC(O)CO)c1 (centres unmarked) [Example 35CG] | < 1 µM | < 1 µM | >5
23 | O=C(Nc1cccc(-c2nnc(Nc3ccc4[nH]ncc4c3)s2)c1)C(O)CO (centres unmarked) [Example 35CI] | < 1 µM | < 1 µM | <5

Row | SMILES | IC50 [1] | IC50 [2] | Selectivity for ROCK2 over ROCK1 (IC50 ROCK1 / IC50 ROCK2) [2]
24 | O=C(O)c1cccc(-c2nnc(Nc3ccc4[nH]ncc4c3)s2)c1 [Example 35CL] | 15 to 30 µM | 1 to 15 µM | –
25 | CCS(=O)(=O)Nc1cncc(-c2nnc(Nc3ccc4[nH]ncc4c3)s2)c1.O=C(O)C(F)(F)F [Example 35CN] | 1 to 15 µM | 1 to 15 µM | >5
26 | O=C(O)COc1cccc(-c2nnc(Nc3ccc4[nH]ncc4c3)s2)c1 [Example 35CO] | 1 to 15 µM | 1 to 15 µM | –
27 | CC(C)NC(=O)COc1cccc(-c2nnc(Nc3ccc4[nH]ncc4c3)s2)c1 [Example 35CP] | 15 to 30 µM | < 1 µM | >5
28 | Nc1cc(-c2nnc(Nc3ccc4[nH]ncc4c3)s2)ccn1.O=C(O)C(F)(F)F [Example 35CQ] | > 30 µM | < 1 µM | >100
29 | Nc1cccc(-c2nnc(Nc3ccc4[nH]ncc4c3)s2)n1.O=C(O)C(F)(F)F [Example 35CR] | > 30 µM | < 1 µM | >5
30 | Nc1cncc(-c2nnc(Nc3ccc4[nH]ncc4c3)s2)c1.O=C(O)C(F)(F)F [Example 35CS] | < 1 µM | 1 to 15 µM | <5
31 | Nc1ccnc(-c2nnc(Nc3ccc4[nH]ncc4c3)s2)c1.O=C(O)C(F)(F)F [Example 35CT] | > 30 µM | < 1 µM | >5
32 | Nc1cccc(-c2nsc(Nc3ccc4[nH]ncc4c3)n2)c1 [Example 35CU] | > 30 µM | 1 to 15 µM | >5
33 | CC(=O)c1cc(-c2nnc(Nc3ccc4[nH]ncc4c3Cl)s2)ccn1 [Example 35CV] | 1 to 15 µM | < 1 µM | >50
34 | CC(C(=O)Nc1cccc(-c2nnc(Nc3ccc4[nH]ncc4c3Cl)s2)c1)c1ccc(F)cc1 (centres unmarked) [Example 35E] | 1 to 15 µM | < 1 µM | >50
35 | CCCOC(=O)Nc1cc(-c2nnc(Nc3ccc4[nH]ncc4c3Cl)s2)ccn1.O=C(O)C(F)(F)F [Example 35F] | > 30 µM | < 1 µM | >100
36 | O=C(Cc1ccc(F)cc1)Nc1cc(-c2nnc(Nc3ccc4[nH]ncc4c3Cl)s2)ccn1 [Example 35G] | < 1 µM | < 1 µM | >5
37 | CC1CCCCC1C(=O)Nc1cccc(-c2nnc(Nc3ccc4[nH]ncc4c3Cl)s2)c1 (centres unmarked) [Example 35H] | 1 to 15 µM | < 1 µM | >5
38 | CC(=O)Nc1cccc(-c2nnc(Nc3ccc4[nH]ncc4c3C(C)C)s2)c1 [Example 35I] | > 30 µM | 1 to 15 µM | >5
39 | CC(=O)Nc1cccc(-c2nnc(Nc3ccc4[nH]ncc4c3C)s2)c1 [Example 35J] | 1 to 15 µM | < 1 µM | >5
40 | C=Cc1c(Nc2nnc(-c3cccc(NC(C)=O)c3)s2)ccc2[nH]ncc12.O=C(O)C(F)(F)F [Example 35K] | 1 to 15 µM | < 1 µM | >5
41 | CC(C)(C)CC(=O)Nc1cccc(-c2nnc(Nc3ccc4[nH]ncc4c3Cl)s2)c1 [Example 35M] | 1 to 15 µM | < 1 µM | >5
42 | CC(C)(C)C(=O)Nc1cccc(-c2nnc(Nc3ccc4[nH]ncc4c3Cl)s2)c1 [Example 35O] | < 1 µM | < 1 µM | >5
43 | O=C(Nc1cccc(-c2nnc(Nc3ccc4[nH]ncc4c3Cl)s2)c1)N1CCNCC1 [Example 35T] | < 1 µM | < 1 µM | >5
44 | CC(C)C(=O)Nc1cccc(-c2nnc(Nc3ccc4[nH]ncc4c3Cl)s2)c1 [Example 35V] | < 1 µM | < 1 µM | >5
45 | CC(=O)Nc1cccc(-c2nnc(Nc3ccc4[nH]ncc4c3Cl)s2)c1 [Example 35Y] | < 1 µM | < 1 µM | >5
46 | N#Cc1cccc(-c2nnc(Nc3ccc4[nH]ncc4c3Cl)s2)c1 [Example 35Z] | > 30 µM | < 1 µM | >100
